Experimental data taken from US9707239B2, “Compounds that modulate oxidative stress” (vTv Therapeutics LLC, priority 2011, dated 2017).
“Also recorded” adds a separate entry of the source.

Experiments:
ICAM = test: mRNA expression (Quantigene Plex) in NHLF cells: ICAM; format: cell-based, human; conditions: mRNA normalized to GAPDH, above DMSO treated cells
Procedure: (§1) Secondary growth of NHLF cells were used for all assays. Cell were thawed and then placed into culture in T225 flasks. The cells were grown to 80% confluency and harvested by washing once with HEPES buffered saline solution and then trypsinizing. Equal numbers (7×10^3 cells per well) of NHLF cells were plated in 96 well tissue culture plates (Corning). Cells were incubated overnight in FGM-2 medium prior to exposure to compound. Cells were treated with either DMSO or a compound as described below for 6 h. Preparation of cell lysates was carried out according to instructions using the Quantigene Reagent system 2.0 protocol (Panomics). mRNA induction was detected from cell lysate using the Quantigene Plex 2.0 Assay Kit (Panomics) on the Luminex platform (BIO-RAD). Expression of GAPDH mRNA was used as the internal control for the Quantigen Plex 2.0 Assay. The data in Tables 5 and 6 represents the fold change of target mRNA expression, normalized to control values, above DMSO treated cells.

human Bach1 = test: MARE controlled luciferase reporter gene assay in HepG2 cells with or without Bach1 expression; format: cell-based; conditions: transient transfection, with or without Bach1 expressing plasmid, FIG. 7
Procedure: The ability of Compound 13 to act in a manner similar to CoPP provides evidence for the hypothesis that Bach1 activity is being modulated by the compounds. […] To that end, expression vectors were prepared which contained the HMOX1 mARE promoter element recognized by both Bach1 and Nrf2. This element was placed in control of the reporter gene luciferase. Under conditions of transient transfection of HepG2 cells, the reporter has a low level of basal activity due to the relative ratio of Bach1 and Nrf2 found in the cell. Co-transfection with a Bach1 expressing plasmid leads to repression of luciferase activity. Therefore, one can test whether the compounds can increase the level of luciferase in the cells, thus overcoming Bach1 repression. […] Thus, the tested compound is able to overcome suppression by additional Bach1.

NQO1 = test: mRNA expression (Quantigene Plex) in NHLF cells: NQO1; format: cell-based, human; conditions: mRNA normalized to GAPDH, above DMSO treated cells
Procedure: as §1

TXNRD1 = test: mRNA expression (Quantigene Plex) in NHLF cells: TXNRD1; format: cell-based, human; conditions: mRNA normalized to GAPDH, above DMSO treated cells
Procedure: as §1

NHLF cells [1] = test: ROS measurements (H2DCF-DA imaging); format: cell-based, human; conditions: 1 hr, cell-by-cell imaging, FIG. 3A/3B
Procedure: Secondary growth of NHLF cells were used for all assays. Cells were cultured as above. Cells were plated into 384-well BD-Optilux Plates at 2,000 cells/well and cultured overnight at 37° C. and 5% CO2. The following day, cell were washed and 2,7-dihydrodichlorofluorescin diacetate (H2DCF-DA), 10 μM ferric ammonium citrate (FAC), and Hoechst stain were added to cells for 30 min. The cells were washed once with PBS to remove any H2DCF-DA not taken up by cells. Test compounds were prepared in FBM-2 media at the desired concentrations. The plates and stain-treated cells were incubated with test compounds for 1 hr at 37° C. and 5% CO2. Following the incubation period, ROS generation was determined by imaging the cells on a GE INcell 1000 imager (Hoechst Ex. 360 Em. 535; H2DCF-DA 488 Ex. 480 Em. 535). ROS levels were determined and quantified using GE IN Cell Analyzer Software.
In addition to gene profiling, the requirement for ROS generation or chemical reactivity was tested. ROS generation was measured using an automated imaging technique. Compound 13 as well as two other compounds that were found in the screening set were tested in this experiment. Untreated NHLF cells, NHLF cells treated with the HMOX1 inducer CoPP (a negative control), and NHLF cells treated with curcumin or celestrol (positive controls) were included as controls. […] Further experiments were also conducted on chemical derivatives of Compound 13. In those experiments, all compounds tested were found not to induce an elevation of ROS levels in the cell (FIG. 3B). Thus, Compound 13 and related compounds represent a class of agents that elevate HMOX1 production without elevating ROS production.

HSPA6 = test: mRNA expression (Quantigene Plex) in NHLF cells: HSPA6; format: cell-based, human; conditions: mRNA normalized to GAPDH, above DMSO treated cells
Procedure: as §1

ATF4 = test: mRNA expression (Quantigene Plex) in NHLF cells: ATF4; format: cell-based, human; conditions: Table 5, 6 h, mRNA normalized to GAPDH, above DMSO treated cells
Procedure: as §1

NHLF cells [2] = test: Cytoprotection of cisplatin (CDDP)-treated NHLF cells (propidium iodide staining); format: cell-based; conditions: NHLF cells, compound 24 hours prior to cisplatin exposure, FIG. 8
Procedure: A key outcome of Bach1 derepression and Nrf2 activation are the induction of cytoprotective genes. A method to test such cytoprotection is to assess the ability of a compound to protect normal human cells such as lung fibroblasts from toxicity due to cisplatin exposure. A model of cellular cytoprotection was established whereby normal human lung fibroblasts were treated with Bach1 modulators and then subsequently exposed to cisplatin. NHLF cells are very sensitive to cisplatin exposure; following a dose of 200 uM cisplatin, >90% of NHLF cells are propidium iodide positive, a measure of cell death.

HMOX1 = test: mRNA expression (Quantigene Plex) in NHLF cells: HMOX1; format: cell-based, human; conditions: mRNA normalized to GAPDH, above DMSO treated cells
Procedure: as §1

GADD45A = test: mRNA expression (Quantigene Plex) in NHLF cells: GADD45A; format: cell-based, human; conditions: mRNA normalized to GAPDH, above DMSO treated cells
Procedure: as §1

Keap1 = test: HMOX1 induction after Keap1 silencing (shRNA); format: cell-based, human; conditions: NHLF cells, FIG. 6
Procedure: Normal human lung fibroblasts were plated in a 12-well tissue culture dish at 16,000 cells/well and allowed to attach overnight. Regular medium was then replaced with 200 μl of fresh growth medium containing 8 μg/ml hexadimethrine bromide (polybrene). Lentiviral transduction particles were then added in the following amounts: Control shRNA (1.1×10^7 TU/ml, Sigma, cat# SHC002V), 15 μl for an MOI of 10; KEAP-1 shRNA (6.3×10^6 TU/ml, Sigma, cat# SHCLNV-TRCN0000046092), 63 μl for an MOI of 20. After 4 hours in the cell culture incubator, another 200 μl of growth medium was added on top of the original volume. Cells were replenished the next day with fresh complete growth medium and were allowed to recover for 24 hours, after which selection medium was applied (complete medium with 1 μg/ml puromycin).
Another method of testing the role of the Nrf2 regulatory pathway on compound activity is to determine the effect of silencing Keap1 on HMOX1 gene expression. It is known that deleting Keap1 will result in the induction of Nrf2 dependent genes but not, to any significant degree, HMOX1. The proposed explanation for this observation is that HMOX1 requires the concomitant derepression of Bach1 activity and that this event is more dependent on active processes (e.g., heme binding, changes in redox potential of the cell, phosphorylation of Bach1, etc.). We therefore tested the ability of Compound 13 and tool compounds to induce HMOX1 in the presence of silencing of Keap1 in normal human lung fibroblasts.
Normal human lung fibroblasts were tested with DMSO, CoPP, Compound 13, and two derivatives including Compound 4 and Compound 8. An electrophile, Compound 1, was also included in the test set. […] On the other hand, induction of HMOX1 by the electrophile Compound 1 was inhibited.

rat HMOX1 mRNA = test: HMOX1 mRNA induction in rat blood after oral gavage; format: in vivo; conditions: rats, oral gavage 5 or 25 mg/kg, over 5 hours, FIG. 11B
Procedure: (§2) Next, selected Bach1 modulators were tested for in vivo function. […] Rats were dosed with 5 mg/kg of compound by oral gavage. Compound levels in blood were determined by LC-MS (left panel). […] In a second experiment, Compound 8 activity was tested by determining the amount of HMOX1 mRNA induced in rat blood. Animals were dosed by oral gavage and blood drawn at the indicated times.

[3] = Compound levels in rat blood after oral gavage (LC-MS); format: in vivo; conditions: rats
Procedure: as §2

Row | oral bioavailability ([3]; oral gavage, FIG. 11) | Structure (SMILES) | ICAM (fold induction) (ICAM; Table 5, 6 h) | ICAM1 (fold induction) (ICAM; Table 6, 6 h) | luciferase activity of HMOX1 mARE reporter (human Bach1) | NQO1 (fold induction) (NQO1; Table 5, 6 h) | NQO1 (fold induction) (NQO1; Table 6, 6 h) | TXNRD1 (fold induction) (TXNRD1; Table 5, 6 h) | TXNRD1 (fold induction) (TXNRD1; Table 6, 6 h) | ROS production (in words) (NHLF cells [1]) | HSPA6 (fold induction) (HSPA6; Table 5, 6 h) | HSPA6 (fold induction) (HSPA6; Table 6, 6 h) | ATF4 (fold induction) (ATF4) | protection against cisplatin toxicity (NHLF cells [2]) | HMOX1 (fold induction) (HMOX1; Table 5, 6 h) | HMOX1 (fold induction) (HMOX1; Table 6, 6 h) | GADD45A (fold induction) (GADD45A; Table 5, 6 h) | GADD45A (fold induction) (GADD45A; Table 6, 6 h) | HMOX1 induction in the presence of Keap1 silencing (Keap1) | HMOX1 mRNA induced in rat blood (rat HMOX1 mRNA) | compound levels in blood ([3]; 5 mg/kg (legend: 5 or 25 mg/kg) oral gavage, LC-MS, FIG. 11A)
1 |  | C=Cc1c(C)c2cc3[nH]c(cc4nc(cc5nc(cc1[nH]2)C(C)=C5CCC(=O)[O-])C(CCC(=O)[O-])=C4C)c(C)c3C=C.[Co+2] [CoPP, Cobalt protoporphyrin IX, reference compound] | 1.1 fold induction | 0.56 fold induction | able to induce luciferase activity in the presence or absence of Bach1 protein expression; also recorded: can overcome this repression | 3.5 fold induction | 4.22 fold induction | 2.7 fold induction | 2.39 fold induction | did not | 0.9 fold induction | 0.86 fold induction | 0.85 fold induction | protect the cells from CDDP-mediated toxicity | 48 fold induction | 49.64 fold induction | 1.02 fold induction | 1.18 fold induction | unaffected in their ability to induce HMOX1 in the presence of Keap1 silencing |  | 
2 | orally bioavailable | COCCNC(=O)c1ccc2c(c1)nc(Nc1nc3ccc(OC(F)(F)F)cc3s1)n2C [Compound 8, 1-Methyl-2-(6-trifluoromethoxy-benzothiazol-2-ylamino)-1H-benzoimidazole-5-carboxylic acid (2-methoxy-ethyl)-amide] |  |  |  |  |  |  |  |  |  |  |  |  |  |  |  |  | unaffected in their ability to induce HMOX1 in the presence of Keap1 silencing; also recorded: behaves similarly to CoPP induction | able to induce HMOX1 mRNA in rat blood in a time and dose-dependent manner; also recorded: dose-dependent induction of rat HMOX1 mRNA in blood samples | micromolar levels; also recorded: present in blood sample following oral dosing
